Test results taken from patent US20030224942A1, “Alkylamino-1,3,5-triazines, processes for their preparation and their use as herbicides and plant growth regulators” (priority 2001, published 2003).

Key:
[1] = tested on: Cyperus spp., Echinochloa spp., Digitaria spp., Sagitaria spp. and Scirpus spp.; test: Action on harmful plants in rice (paddy rice conditions, visual scoring); type: in vivo, typical rice weeds (gramineous and broad-leaved); conditions: applied into the dammed water, visual scoring about three weeks after application
Text: Transplanted and sown rice and also typical rice weeds (gramineous and broad-leaved) are cultivated in closed plastic pots in a greenhouse to the three-leaf stage (Echinochloa crus-galli 1.5-leaf) under paddy rice conditions (dammed height of water: 2-3 cm). This is followed by treatment with the compounds according to the invention. […] After this treatment, the test plants are set up in a greenhouse under optimum growth conditions and are maintained in this way throughout the test period.

[2] = tested on: Chenopodium spp., Papaver spp., Polygonum spp., Veronica spp. or Viola spp.; test: Post-emergence effect on weeds (greenhouse pot test, visual scoring); type: in vivo, monocotyledonous and dicotyledonous weeds; conditions: treated at three-leaf stage; visual scoring after about 3 to 4 weeks; application rate of 0.5 kg and less of active substance per hectare

SMILES	herbicidal activity against harmful plants which are typical for rice crops [1]	herbicidal activity post-emergence against harmful plants [2]
C#Cc1cc(C(C)Nc2nc(N)nc(CC)n2)ccc1F (stereo not shown) [Product P7.309]	very good herbicidal activity	very good herbicidal activity
C#Cc1c(F)cc(CNc2nc(N)nc(C(C)(C)F)n2)cc1F [Product P16.352]	very good herbicidal activity	very good herbicidal activity
CC#Cc1cccc(C(Nc2nc(N)nc(C(F)CC)n2)C2CC2)c1 (stereo not shown) [Product P29.1582]	very good herbicidal activity	very good herbicidal activity
CC(O)C#Cc1cc(C(C)Nc2nc(N)nc(C(C)F)n2)ccc1F (stereo not shown) [Product P22.840]	very good herbicidal activity	very good herbicidal activity
C#Cc1c(F)cc(C(Nc2nc(N)nc(C(C)(C)F)n2)C2CC2)cc1F (stereo not shown) [Product P19.352]	very good herbicidal activity	very good herbicidal activity
CC(F)c1nc(N)nc(NCc2cccc(C3CC3)c2)n1 (stereo not shown) [Product P21.1603]	very good herbicidal activity	very good herbicidal activity
C#Cc1ccc(C(Nc2nc(N)nc(CC)n2)C2CC2)cc1 (stereo not shown) [Product P9.1580]	very good herbicidal activity	very good herbicidal activity
Cc1nc(N)nc(NC(C)c2cccc(C(F)=C(F)F)c2)n1 (stereo not shown) [Product P2.1567]	very good herbicidal activity	very good herbicidal activity
C#Cc1ccc(CNc2nc(N)nc(C(C)F)n2)cc1 (stereo not shown) [Product P21.1580]	very good herbicidal activity	very good herbicidal activity
CCC(F)c1nc(N)nc(NC(C)c2cccc(C(F)=C(F)F)c2)n1 (stereo not shown) [Product P27.1567]	very good herbicidal activity	very good herbicidal activity
CC#Cc1cc(C(C)Nc2nc(N)nc(C(F)CC)n2)ccc1F (stereo not shown) [Product P27.384]	very good herbicidal activity	very good herbicidal activity
CC(F)c1nc(N)nc(NCc2ccc(F)c(C3CC3)c2)n1 (stereo not shown) [Product P21.916]	very good herbicidal activity	very good herbicidal activity
CC(O)C#Cc1cccc(C(C)Nc2nc(N)nc(C(C)(C)F)n2)c1 (stereo not shown) [Product P17.1600]	very good herbicidal activity	very good herbicidal activity
CC#Cc1ccc(CNc2nc(C)nc(N)n2)cc1 [Product P1.1583]	very good herbicidal activity	very good herbicidal activity
CC(O)C#Cc1cc(C(C)Nc2nc(N)nc(C(C)C)n2)ccc1F (stereo not shown) [Product P12.840]	very good herbicidal activity	very good herbicidal activity
CC#Cc1cccc(C(Nc2nc(N)nc(C(C)F)n2)C2CC2)c1 (stereo not shown) [Product P24.1582]	very good herbicidal activity	very good herbicidal activity
Cc1nc(N)nc(NC(c2cc(F)c(C(F)=C(F)F)c(F)c2)C2CC2)n1 (stereo not shown) [Product P4.49]	very good herbicidal activity	very good herbicidal activity
CC(C)c1nc(N)nc(NCc2cccc(C3CC3)c2)n1 [Product P11.1603]	very good herbicidal activity	very good herbicidal activity
C#Cc1ccc(C(C)Nc2nc(N)nc(C(C)(C)F)n2)cc1F (stereo not shown) [Product P17.1620]	very good herbicidal activity	very good herbicidal activity
Cc1nc(N)nc(NCc2ccc(F)c(C3CC3)c2)n1 [Product P1.916]	very good herbicidal activity	very good herbicidal activity
C#Cc1c(F)cc(C(Nc2nc(N)nc(C(C)C)n2)C2CC2)cc1F (stereo not shown) [Product P14.352]	very good herbicidal activity	very good herbicidal activity

SMILES	herbicidal activity against harmful plants which are typical for rice crops [1]	herbicidal activity post-emergence against harmful plants [2]
C#Cc1ccc(C(C)Nc2nc(N)nc(C(C)(C)F)n2)cc1C (stereo not shown) [Product P17.335]	very good herbicidal activity	very good herbicidal activity
Cc1nc(N)nc(NC(C)c2cc(F)c(C3CC3)c(F)c2)n1 (stereo not shown) [Product P2.960]	very good herbicidal activity	very good herbicidal activity
CC#Cc1c(F)cc(C(C)Nc2nc(N)nc(C(C)(C)F)n2)cc1F (stereo not shown) [Product P17.428]	very good herbicidal activity	very good herbicidal activity
C#Cc1cccc(CNc2nc(N)nc(C(C)(C)F)n2)c1 [Product P16.1579]	very good herbicidal activity	very good herbicidal activity
C#Cc1cc(C(Nc2nc(N)nc(C(C)(C)F)n2)C2CC2)ccc1F (stereo not shown) [Product P19.309]	very good herbicidal activity	very good herbicidal activity
CCC(F)c1nc(N)nc(NC(C)c2ccc(C#CC(C)O)cc2)n1 (stereo not shown) [Product P27.1601]	very good herbicidal activity	very good herbicidal activity
Cc1nc(N)nc(NC(C)c2ccc(C3CC3)cc2)n1 (stereo not shown) [Product P2.1604]	very good herbicidal activity	very good herbicidal activity
CCC(F)c1nc(N)nc(NC(C)c2cc(F)c(C(F)=C(F)F)c(F)c2)n1 (stereo not shown) [Product P27.49]	very good herbicidal activity	very good herbicidal activity
CC#Cc1c(F)cc(C(Nc2nc(N)nc(CC)n2)C2CC2)cc1F (stereo not shown) [Product P9.428]	very good herbicidal activity	very good herbicidal activity
C#Cc1cc(C(C)Nc2nc(C)nc(N)n2)ccc1F (stereo not shown) [Product P2.309]	very good herbicidal activity	very good herbicidal activity
CC(C)c1nc(N)nc(NC(C)c2cc(F)c(C(F)=C(F)F)c(F)c2)n1 (stereo not shown) [Product P12.49]	very good herbicidal activity	very good herbicidal activity
C#Cc1cccc(CNc2nc(N)nc(CC)n2)c1 [Product P6.1579]	very good herbicidal activity	very good herbicidal activity
C#Cc1ccc(C(Nc2nc(N)nc(C(C)(C)F)n2)C2CC2)cc1 (stereo not shown) [Product P19.1580]	very good herbicidal activity	very good herbicidal activity
C#Cc1ccc(C(C)Nc2nc(N)nc(C(F)CC)n2)cc1 (stereo not shown) [Product P27.1580]	very good herbicidal activity	very good herbicidal activity
CC#Cc1c(F)cc(C(C)Nc2nc(N)nc(C(F)CC)n2)cc1F (stereo not shown) [Product P27.428]	very good herbicidal activity	very good herbicidal activity
CC#Cc1cccc(C(C)Nc2nc(C)nc(N)n2)c1 (stereo not shown) [Product P2.1582]	very good herbicidal activity	very good herbicidal activity
CC(F)c1nc(N)nc(NC(C)c2ccc(C3CC3)cc2)n1 (stereo not shown) [Product P22.1604]	very good herbicidal activity	very good herbicidal activity
C#Cc1ccc(C(C)Nc2nc(C)nc(N)n2)cc1F (stereo not shown) [Product P2.1620]	very good herbicidal activity	very good herbicidal activity
C#Cc1ccc(CNc2nc(C)nc(N)n2)cc1 [Product P1.1580]	very good herbicidal activity	very good herbicidal activity
CC(Nc1nc(N)nc(C(C)(C)F)n1)c1cc(F)c(C2CC2)c(F)c1 (stereo not shown) [Product P17.960]	very good herbicidal activity	very good herbicidal activity
